The values that follow come from ChEMBL document CHEMBL5338797, “Rational Design of Covalent Kinase Inhibitors by an Integrated Computational Workflow (Kin-Cov)” (J Med Chem, 2023).

The target in assay [1] is T1, Mitogen-activated protein kinase kinase kinase 20 (Homo sapiens, UniProt Q9NYL2). Nature of the assay: Inhibition of recombinant ZAK (unknown origin) using ATP as substrate preincubated for 60 mins followed by substrate addition and measured after 40 mins by fluorescence based envision multilabel reader method.
Target sequence in this assay (Q9NYL2 whole entry): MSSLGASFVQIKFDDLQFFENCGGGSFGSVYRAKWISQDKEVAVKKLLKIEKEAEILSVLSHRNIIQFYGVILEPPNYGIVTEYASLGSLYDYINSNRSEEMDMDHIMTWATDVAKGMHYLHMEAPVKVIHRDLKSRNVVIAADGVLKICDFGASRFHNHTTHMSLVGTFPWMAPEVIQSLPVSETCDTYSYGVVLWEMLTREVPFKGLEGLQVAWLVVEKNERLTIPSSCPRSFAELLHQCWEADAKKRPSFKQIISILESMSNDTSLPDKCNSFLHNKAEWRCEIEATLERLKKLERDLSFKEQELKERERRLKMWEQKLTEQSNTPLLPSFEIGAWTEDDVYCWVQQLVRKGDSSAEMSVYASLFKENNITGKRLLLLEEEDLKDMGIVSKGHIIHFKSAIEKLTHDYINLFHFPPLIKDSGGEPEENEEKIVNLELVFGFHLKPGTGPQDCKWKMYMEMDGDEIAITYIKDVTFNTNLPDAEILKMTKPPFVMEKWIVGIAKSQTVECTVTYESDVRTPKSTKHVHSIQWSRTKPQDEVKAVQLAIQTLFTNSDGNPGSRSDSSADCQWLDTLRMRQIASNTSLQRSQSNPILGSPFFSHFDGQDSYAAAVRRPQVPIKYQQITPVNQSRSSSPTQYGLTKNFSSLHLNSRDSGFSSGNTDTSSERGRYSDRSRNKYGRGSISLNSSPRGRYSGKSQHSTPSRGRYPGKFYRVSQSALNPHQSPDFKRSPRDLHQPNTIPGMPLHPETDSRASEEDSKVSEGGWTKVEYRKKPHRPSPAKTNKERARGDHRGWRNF
For assay [2], the target named is Serine/threonine-protein kinase B-raf (Homo sapiens, UniProt P15056, V600E). As to the kind of experiment: Inhibition of B-RAF V600E mutant (unknown origin) incubated for 1 hr in presence of ATP by envision multilabel reader analysis.
Serine/threonine-protein kinase B-raf, sequence (P15056 2-766 V600E limits assumed): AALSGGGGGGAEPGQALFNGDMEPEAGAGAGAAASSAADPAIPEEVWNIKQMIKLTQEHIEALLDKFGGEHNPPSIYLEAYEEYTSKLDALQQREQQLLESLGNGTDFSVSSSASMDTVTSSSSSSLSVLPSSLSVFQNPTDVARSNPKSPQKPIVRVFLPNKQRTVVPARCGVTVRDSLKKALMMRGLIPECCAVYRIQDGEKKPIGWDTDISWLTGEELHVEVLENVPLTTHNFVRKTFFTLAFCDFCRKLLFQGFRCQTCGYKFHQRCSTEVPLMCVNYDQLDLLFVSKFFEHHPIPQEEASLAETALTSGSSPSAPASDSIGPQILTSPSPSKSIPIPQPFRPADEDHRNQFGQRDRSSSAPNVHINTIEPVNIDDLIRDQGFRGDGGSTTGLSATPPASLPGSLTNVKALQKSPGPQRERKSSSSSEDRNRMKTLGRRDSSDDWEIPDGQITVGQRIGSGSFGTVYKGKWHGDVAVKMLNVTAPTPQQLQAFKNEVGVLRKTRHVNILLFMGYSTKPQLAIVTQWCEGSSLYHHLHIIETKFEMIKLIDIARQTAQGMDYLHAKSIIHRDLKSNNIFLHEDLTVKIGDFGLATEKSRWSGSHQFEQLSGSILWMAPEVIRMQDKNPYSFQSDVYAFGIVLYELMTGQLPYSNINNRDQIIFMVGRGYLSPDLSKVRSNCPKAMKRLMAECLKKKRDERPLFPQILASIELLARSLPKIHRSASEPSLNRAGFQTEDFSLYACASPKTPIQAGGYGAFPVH
The target in assay [3] is MAP kinase p38 (Homo sapiens) (UniProt O15264+Q15759+Q16539+P53778). As to the kind of experiment: Inhibition of p38 phosphorylation in human U2OS cells measured for 1 hr by Western blot analysis. Type of assay: cell-based. The settings on record: dose <= 10.0 µM.
Assay [4] concerns the target T2, LIM domain kinase 1 (Homo sapiens, UniProt P53667). As to the kind of experiment: Inhibition of full length human LIMK1 at 1000 nM by KINOMEscan assay relative to control; values are per cent of control.
Target sequence in this assay (P53667 whole entry, looked up, the tested form may be a part): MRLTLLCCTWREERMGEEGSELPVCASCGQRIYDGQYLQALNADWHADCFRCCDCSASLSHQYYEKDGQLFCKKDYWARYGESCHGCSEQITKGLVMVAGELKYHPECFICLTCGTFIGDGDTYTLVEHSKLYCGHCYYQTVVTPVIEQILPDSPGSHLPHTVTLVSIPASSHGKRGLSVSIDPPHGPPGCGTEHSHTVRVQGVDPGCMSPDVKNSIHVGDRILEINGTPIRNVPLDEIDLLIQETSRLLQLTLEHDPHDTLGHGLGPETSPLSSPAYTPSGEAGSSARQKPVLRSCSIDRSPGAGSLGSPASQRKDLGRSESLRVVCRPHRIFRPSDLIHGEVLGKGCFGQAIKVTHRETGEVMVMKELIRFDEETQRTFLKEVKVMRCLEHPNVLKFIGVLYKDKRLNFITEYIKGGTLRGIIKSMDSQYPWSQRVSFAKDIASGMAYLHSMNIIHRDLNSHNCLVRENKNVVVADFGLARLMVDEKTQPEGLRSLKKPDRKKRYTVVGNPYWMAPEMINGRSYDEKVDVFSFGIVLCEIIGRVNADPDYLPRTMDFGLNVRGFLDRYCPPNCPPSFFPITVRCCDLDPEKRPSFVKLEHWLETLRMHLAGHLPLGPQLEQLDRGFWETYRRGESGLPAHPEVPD
For assay [5], the target named is T3, Tyrosine-protein kinase Lck (Homo sapiens, UniProt P06239). As to the kind of experiment: Inhibition of partial length human LCK at 1000 nM by KINOMEscan assay relative to control; values are per cent of control.
Target sequence in this assay (P06239 2-509 limits assumed): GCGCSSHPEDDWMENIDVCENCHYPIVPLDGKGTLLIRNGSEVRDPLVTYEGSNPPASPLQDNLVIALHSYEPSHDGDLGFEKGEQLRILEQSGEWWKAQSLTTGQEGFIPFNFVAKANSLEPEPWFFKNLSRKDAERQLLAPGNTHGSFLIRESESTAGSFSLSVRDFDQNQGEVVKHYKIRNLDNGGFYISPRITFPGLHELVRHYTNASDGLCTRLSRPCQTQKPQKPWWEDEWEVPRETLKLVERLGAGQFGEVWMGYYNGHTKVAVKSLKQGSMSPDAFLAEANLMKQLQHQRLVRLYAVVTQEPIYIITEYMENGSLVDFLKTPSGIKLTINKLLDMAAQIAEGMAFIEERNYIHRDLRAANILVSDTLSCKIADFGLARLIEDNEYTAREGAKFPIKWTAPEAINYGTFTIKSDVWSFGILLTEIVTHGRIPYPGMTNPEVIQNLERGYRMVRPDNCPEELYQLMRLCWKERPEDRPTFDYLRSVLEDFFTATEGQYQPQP
For assay [6], the target named is T4, LIM domain kinase 2 (Homo sapiens, UniProt P53671). As to the kind of experiment: Inhibition of full length human LIMK2 by KINOMEscan assay.
Target sequence in this assay (P53671 whole entry, the tested form may be a part): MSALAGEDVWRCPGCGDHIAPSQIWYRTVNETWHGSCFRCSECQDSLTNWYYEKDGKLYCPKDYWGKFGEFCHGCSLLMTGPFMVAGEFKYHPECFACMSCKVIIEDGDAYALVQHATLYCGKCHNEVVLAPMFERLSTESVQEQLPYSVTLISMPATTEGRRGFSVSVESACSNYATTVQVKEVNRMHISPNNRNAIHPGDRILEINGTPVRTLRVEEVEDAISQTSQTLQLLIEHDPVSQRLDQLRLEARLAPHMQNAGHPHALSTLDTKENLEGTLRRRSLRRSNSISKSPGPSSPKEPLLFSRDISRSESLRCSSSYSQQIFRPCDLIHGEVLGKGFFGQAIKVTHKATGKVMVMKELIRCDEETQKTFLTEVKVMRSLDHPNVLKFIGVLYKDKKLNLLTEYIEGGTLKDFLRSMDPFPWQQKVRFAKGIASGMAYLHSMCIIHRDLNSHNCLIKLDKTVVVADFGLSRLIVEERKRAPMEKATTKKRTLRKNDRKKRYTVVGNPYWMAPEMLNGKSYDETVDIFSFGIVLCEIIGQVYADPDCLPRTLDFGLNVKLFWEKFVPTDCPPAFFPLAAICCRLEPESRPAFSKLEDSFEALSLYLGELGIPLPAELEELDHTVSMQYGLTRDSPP
The target of assay [7] is T2, LIM domain kinase 1. As to the kind of experiment: Inhibition of full length human LIMK1 by KINOMEscan assay.
Target sequence in this assay (P53667 whole entry, the tested form may be a part): as the sequence (P53667 whole entry, looked up, the tested form may be a part) above
Assay [8] has as its target T4, LIM domain kinase 2. As to the kind of experiment: Inhibition of full length human LIMK2 at 1000 nM by KINOMEscan assay relative to control; values are per cent of control.
Target sequence in this assay (P53671 whole entry, looked up, the tested form may be a part): as the sequence (P53671 whole entry, the tested form may be a part) above
The test system of assay [9] is U2OS. Nature of the assay: Induction of apoptosis in human U2OS cells assessed as reduction in cell death at 10 uM measured after 24 hrs in presence of doxorubicin. It counts as functional, cell-based.
The target in assay [10] is T3, Tyrosine-protein kinase Lck. As to the kind of experiment: Inhibition of partial length human LCK by KINOMEscan assay.
Target sequence in this assay (P06239 whole entry, the tested form may be a part): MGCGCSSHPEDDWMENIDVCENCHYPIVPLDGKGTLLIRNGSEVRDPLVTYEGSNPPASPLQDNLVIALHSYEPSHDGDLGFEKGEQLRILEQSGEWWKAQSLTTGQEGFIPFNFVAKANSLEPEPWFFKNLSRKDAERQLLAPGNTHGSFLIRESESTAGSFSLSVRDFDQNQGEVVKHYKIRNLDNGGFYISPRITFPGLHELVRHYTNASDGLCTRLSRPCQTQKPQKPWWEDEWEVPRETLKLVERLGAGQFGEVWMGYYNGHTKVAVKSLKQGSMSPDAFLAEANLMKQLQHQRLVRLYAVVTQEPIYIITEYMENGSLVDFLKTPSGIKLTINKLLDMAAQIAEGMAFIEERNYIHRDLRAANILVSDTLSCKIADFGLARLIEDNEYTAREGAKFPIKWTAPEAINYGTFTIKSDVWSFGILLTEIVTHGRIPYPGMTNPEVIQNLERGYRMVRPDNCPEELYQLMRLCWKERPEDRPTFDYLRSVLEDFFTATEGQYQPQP
For assay [11], the system named is U2OS. Nature of the assay: Induction of apoptosis in ZAK knockout human U2OS cells assessed as reduction in cell death at 10 uM measured after 24 hrs in presence of doxorubicin. Type of assay: functional, cell-based.
Assay [12] addresses T1, Mitogen-activated protein kinase kinase kinase 20. As to the kind of experiment: Inhibition of ZAKbeta (unknown origin) at 10 uM measured after 1 hr by Western blot analysis.
Target sequence in this assay (Q9NYL2 2-800 limits assumed): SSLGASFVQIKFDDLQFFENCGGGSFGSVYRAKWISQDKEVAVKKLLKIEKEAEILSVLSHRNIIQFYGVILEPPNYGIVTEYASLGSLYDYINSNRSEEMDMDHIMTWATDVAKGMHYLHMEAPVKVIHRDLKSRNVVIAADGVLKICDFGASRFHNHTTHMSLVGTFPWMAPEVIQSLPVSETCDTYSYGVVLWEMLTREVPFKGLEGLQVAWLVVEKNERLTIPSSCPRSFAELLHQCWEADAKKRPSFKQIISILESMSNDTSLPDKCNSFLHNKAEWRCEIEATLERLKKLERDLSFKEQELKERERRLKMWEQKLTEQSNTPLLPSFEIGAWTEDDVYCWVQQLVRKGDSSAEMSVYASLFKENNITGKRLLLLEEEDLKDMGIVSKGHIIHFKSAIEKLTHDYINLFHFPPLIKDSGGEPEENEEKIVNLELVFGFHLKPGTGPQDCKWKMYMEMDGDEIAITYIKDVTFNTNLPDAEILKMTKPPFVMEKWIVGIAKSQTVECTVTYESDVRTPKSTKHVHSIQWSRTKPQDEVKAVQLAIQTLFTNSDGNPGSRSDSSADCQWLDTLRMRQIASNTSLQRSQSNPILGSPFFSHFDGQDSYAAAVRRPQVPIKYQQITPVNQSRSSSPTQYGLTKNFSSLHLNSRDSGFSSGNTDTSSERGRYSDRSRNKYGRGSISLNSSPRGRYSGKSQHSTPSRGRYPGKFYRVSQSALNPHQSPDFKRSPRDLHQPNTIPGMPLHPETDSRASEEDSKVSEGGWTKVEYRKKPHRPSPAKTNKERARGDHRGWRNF
The subject of assay [13] is U2OS. As to the kind of experiment: Induction of apoptosis in ZAK knockout human U2OS cells assessed as increase in cleaved-caspase 3 level at 10 uM measured for 4 hrs. Type of assay: functional, cell-based.
Assay [14] has as its target T1, Mitogen-activated protein kinase kinase kinase 20. Nature of the assay: Inhibition of partial length human ZAK at 1000 nM by KINOMEscan assay relative to control; values are per cent of control.
Target sequence in this assay (Q9NYL2 2-800 limits assumed): as above
Assay [15] has the same target. As to the kind of experiment: Inhibition of ZAKapha (unknown origin) at 10 uM measured after 1 hr by Western blot analysis.
Target sequence in this assay (Q9NYL2 2-800 limits assumed): as above
For assay [16] the target is unchanged. Nature of the assay: Inhibition of partial length human ZAK by KINOMEscan assay.
Target sequence in this assay (Q9NYL2 whole entry): as the sequence (Q9NYL2 whole entry) above
For assay [17], the system named is U2OS. As to the kind of experiment: Induction of apoptosis in human U2OS cells assessed as increase in cleaved-caspase 3 level at 100 uM measured for 4 hrs. It counts as functional, cell-based.

Calls of active or inactive are those of the source. The rule behind the calls is not given here.

Regarding `C=CC(=O)N1CC[C@H](Oc2n[nH]c3ncc(-c4cn(-c5c(F)ccc(NS(=O)(=O)c6cccc(-c7ccccc7)c6)c5F)nn4)cc23)C1`, in [1], the IC50 came to 9.9 nM.
Still for that read-out and setting: the figure for `C=CC(=O)NCCCOc1n[nH]c2ncc(-c3cn(-c4c(F)ccc(NS(=O)(=O)c5cccc(-c6ccccc6)c5)c4F)nn3)cc12` is 9.1 nM; for `C=CC(=O)N1CC[C@@H](Oc2n[nH]c3ncc(-c4cn(-c5c(F)ccc(NS(=O)(=O)c6cccc(-c7ccccc7)c6)c5F)nn4)cc23)C1` it is 12.3 nM.
Turning to `C=CC(=O)N1CCC(Oc2n[nH]c3ncc(-c4cn(-c5c(F)ccc(NS(=O)(=O)c6ccccc6)c5F)nn4)cc23)C1` (configuration not stated), the figures for the IC50 in assay [2] and in assay [1] were 247 nM and 10.1 nM, respectively.
Consider `C=CC(=O)N1CCCC(NC(=O)CCCCCCOc2n[nH]c3ncc(-c4cn(-c5c(F)ccc(NS(=O)(=O)c6cccc(-c7ccccc7)c6)c5F)nn4)cc23)C1` (configuration not stated), for which, in assay [1], the half-inhibitory concentration (IC50) came to 34.7 nM.
The same measure, in the same setting: for `C=CC(=O)NCCCCCCN1CCC(COc2n[nH]c3ncc(-c4cn(-c5c(F)ccc(NS(=O)(=O)c6cccc(-c7ccccc7)c6)c5F)nn4)cc23)CC1` the value was 10.1 nM.
Regarding `COc1ccc(C[C@H]2NC[C@H](O)[C@H]2OC(C)=O)cc1`, the inhibition result in assay [3] is “Dose-Dependent Effect”.
`C=CC(=O)N1CCC(Oc2n[nH]c3ncc(-c4cn(-c5c(F)ccc(NS(=O)(=O)c6cccc(-c7ccccc7)c6)c5F)nn4)cc23)C1` (configuration not stated): the residual activity on LIM domain kinase 1 [4] is 9%; in assay [5] it was 8%; at LIM domain kinase 2 [8], 6%; in [14], -4%. Also, the inhibition entry in assay [3] is “Dose-Dependent Effect”. Besides, the IC50 is 21.3 nM at LIM domain kinase 2 [6]; 12.3 nM against LIM domain kinase 1 [7]; 204 nM in assay [10]; more than 1000 nM in assay [2]; 11.5 nM in assay [1]; 11.5 nM in assay [16]. Further, the outcome in the assay on U2OS [9] was Active. Besides, the result in the assay with U2OS [11] and with U2OS [13] was inactive. For the same compound, the inhibition result in assay [12] and in [15] was “Active” throughout.
`COc1n[nH]c2ncc(-c3cn(-c4c(F)ccc(NS(=O)(=O)c5cccc(-c6ccccc6)c5)c4F)nn3)cc12`: the IC50 in [2] is more than 1000 nM; in assay [1] it was 8.8 nM.
Take `COc1cccc2c1C(=O)c1c(O)c3c(c(O)c1C2=O)C[C@@](O)(C(=O)CO)C[C@@H]3O[C@H]1C[C@H](N)[C@H](O)[C@H](C)O1`: the outcome in the assay with U2OS [17] was Active.
